Assays:
COX-2 = assay: Gene expression analysis (quantitative PCR) of COX-2 in primary human chondrocytes; type: cell-based; conditions: IL-1β, 1 or 10 mM, 24 hrs, FIG. 4
Description: (§1) Normal cartilage were obtained from autopsy services at the hospital of University of Virginia, approved by the Institutional Review Board. Articular cartilage were harvested from the femoral condyles and the tibial plateaus. Cartilage shavings were harvested at the operation room and placed in tissue culture medium (DMEM, 10% FBS, penicillin, streptomycin), and shipped to the laboratory at 4° C. Chondrocytes were isolated by incubation of the cartilage fragments with 0.01% collagenase NB4 (Fisher Scientific, Catalog No. 50-204-1257) for 4 hrs at 37° C. Cells were maintained in continuous monolayer cultures in DMEM containing 10% FBS. Experiments were performed with cells less than 3 passages. When necessary, trypsin were used for cell passage.
(§2) Cells, as prepared in the MATERIALS section, were seeded in a 24-well plate (3×10^5/well) and incubated with culture medium overnight. Cells were then treated with Compound 2 at various concentrations in DMEM containing 2% FBS (1 or 10 mM) for 24 hrs. […] Synthesis of cDNA from total RNA and the quantitative PCR were carried out by using the iscript™ cDNA synthesis kit and the iQ™ SYBR Green Supermix kit (Bio-Rad Laboratories, Hercules, CA), respectively. […] The threshold cycle (CT) value were calculated from amplification plots. Data were analyzed using the 2-ΔΔCT method with 18s rRNA serving as the reference. […]

IL-6 = assay: Gene expression analysis (quantitative PCR) of IL-6 in primary human chondrocytes; type: cell-based; conditions: IL-1β, 1 or 10 mM, 24 hrs, FIG. 3
Description: as §1, §2

COVID-19 = assay: Prospective observational cohort study of NAG in hospitalized COVID-19 patients vs retrospective control arm; type: in vivo
[1] = NAG (n = 48) vs control (n = 100), univariate
[2] = multiple logistic regression, NAG (ref = control)

## CC(=O)N[C@H]1[C@H](O)O[C@H](C)C[C@@H]1O [Cpd 2, 2-(acetylamino)-2,4,6-trideoxy-β-D-glucopyranose]
COX-2
  Expression of pro-inflammatory gene COX-2: dose-dependent inhibition
IL-6
  Expression of pro-inflammatory gene IL-6: dose-dependent inhibition

## CC(=O)N[C@@H]1[C@@H](O)[C@H](O)[C@@H](CO)O[C@H]1O [NAG, N-((2R,3R,4R,5S,6R)-2,4,5-trihydroxy-6-(hydroxymethyl)-tetrahydro-2H-pyran-3-yl)acetamide]
COVID-19; 700 mg NAG every 12 hours plus standard of care, NAG group n = 48
  Intubation, %: (16.7%)
COVID-19; [1]
  ICU admission, odds ratio: 0.53
  Mortality, odds ratio: 0.37
  Poor clinical outcome, odds ratio: 0.30
COVID-19; NAG (n = 48) vs control (n = 100), univariate, Fisher's exact test
  Intubation, odds ratio: 0.60
COVID-19; NAG (n = 48) vs control (n = 100), univariate, Mann-Whitney U test
  Hospital LOS, Hodges-Lehmann difference: 0.0
COVID-19; NAG group n = 48
  ICU admission, %: (22.9%)
  Poor clinical outcome (combined death/hospice initiation), %: (12.5%)
COVID-19; NAG group n = 48, median (IQR) [range]
  Hospital LOS, median: 7
COVID-19; excludes patients that died, NAG n = 42
  Hospice initiation, %: (0%)
COVID-19; excludes patients that died, NAG n = 42 vs control n = 72, univariate
  Hospice initiation, odds ratio: 0.00
COVID-19; [2]
  ICU admission, odds ratio (multivariate): 0.32
  Poor clinical outcome rate, odds ratio (multivariate): 0.30
COVID-19; multivariate linear regression, NAG (ref = control)
  Hospital length of stay, β-coefficient: −4.27
COVID-19; only patients admitted to the ICU, NAG n = 10
  ICU LOS, median: 2.5
COVID-19; only patients admitted to the ICU, NAG n = 10 vs control n = 36, univariate
  ICU LOS, Hodges-Lehmann difference: 4.0
COVID-19; only patients that required oxygen support, NAG n = 46 vs control n = 86, univariate
  Duration of oxygen, Hodges-Lehmann difference: 0.0 days
COVID-19; univariate analysis
  Difference between control and NAG groups for intubation rates, hospital LOS, ICU admission, ICU LOS, duration of oxygen use, or hospice initiation: no significant differences

— patent US20230346816A1, “COMPOUNDS AND METHODS FOR TREATING VIRAL INFECTION” (priority 2020, published 2023)
